Assay results from patent US10080752B2, “Treatment of brain and central nervous system tumors” (KADMON CORPORATION LLC, priority 2014, dated 2018).

Legend:
[1] = Penetration of the blood-brain barrier: plasma and brain concentrations after a single oral dose; format: in vivo, Male CD-1 mice; conditions: mice, single dose 100 mg/kg oral gavage
Method: The compound of Formula I was tested to determine bioavalability in tissues of the brain and CNS.
Male CD-1 mice (N=3/group) received a single dose of lapatinib or the compound of Formula I at 100 mg/kg via oral gavage. Animals were not food fasted prior to dosing. Dose volumes were calculated based on the animals' body weights measured before the study.
Plasma and tissue samples were collected 1, 4, 8 and 24 hours post dose (4 time-points/group, and 3 animals/time-point). Whole blood samples were collected into a Na heparin containing tube. Within 30 minutes of collection, the samples were centrifuged at approximately 3,000×g for 10 minutes at 2 to 8° C. to obtain plasma. The plasma samples were divided into 2 aliquots by transferring into 2 cryogenic vials and stored in a freezer at −75±15° C. prior to analysis. Tissues were collected after the blood was collected. Tissues (brain, liver and kidneys) were washed with ice-cold PBS, and the weight was measured and recorded. Each tissue was transferred into a glass vial and stored in a freezer at −75±15° C. prior to sample analysis.

[2] = Penetration of the blood-brain barrier by quantitative whole body autoradiography; format: in vivo, Lister Hooded partially pigmented male rats; conditions: rats
Method: The compound of Formula 1 was tested to determine bio-distribution in tissues of the brain and CNS.
Lister Hooded partially pigmented male rats (N=1 rat per time point) received a single dose of the compound of Formula 1 at 30 mg/kg body weight (^14C labeled, 3.7 MBq/kg body weight) via oral gavage. Animals were not fasted prior to dosing.
Six rats (age 8-10 weeks old) were administered a single oral dose of [^14C]-labeled Formula 1; total dose of 30 mg/kg and a total radioactivity dose of 3.7 MBq/kg (100 μCi/kg). One rat/time point was euthanized by CO2 overdose at each of the following times after dose administration: 1, 6, 24, 72, 120 and 168 hours, followed by immediate snap freezing in hexane/solid CO2, subsequent freezing at −20° C., followed by whole-body autoradiography.

[3] = system: GL261-luc2 luciferase expressing cells; experiment: Efficacy alone or in combination with irradiation in an intracranial glioma model in mice; format: in vivo, C57BL/6 albino female mice; conditions: 70 mg/kg once daily, 5 days on/2 days off, oral gavage, FIG. 2
Method: The compound of Formula 1 was tested to determine antitumor effects when tumors are growing in the brain. GL261-luc2 luciferase expressing cells were implanted intracranially (2 mm right lateral and 1 mm anterior from Bregma, 2-3 mm down from burr hole) into C57BL/6 albino female mice (N=14 per treatment group). Beginning 8 days after cell injection, mice received vehicle or the compound of Formula I at 70 mg/kg body weight (once daily, 5 days on/2 days off schedule) via oral gavage, with or without head-only irradiation (once daily for 5 days). Tumor burden in the brain was evaluated utilizing bioluminescence.

[4] = comparator in FIG. 1, 100 mg/kg oral gavage in mice; cited from earlier work

SMILES | Concentration observed in CNS tissue compared with blood ([1]; FIG. 1) | Time for which the CNS tissue concentration remained higher than in blood ([1]; duration of the assay) | Crossing of the blood brain barrier / concentrations in CNS and brain tissue ([1]; samples 1, 4, 8 and 24 hours post dose, FIG. 1) | Concentrations of radioactivity in brain compared with blood ([2]; single oral dose 30 mg/kg 14C labeled (3.7 MBq/kg), at 6 and 24 hours after dosing) | Penetration of the blood brain barrier ([2]; single oral dose 30 mg/kg 14C labeled, whole-body autoradiography) | Growth of glioma tumors in the brain (tumor burden by bioluminescence) ([3]; from 8 days after cell injection, alone) | Anti-tumor effects of irradiation on tumors in the brain (tumor burden by bioluminescence) ([3]; with head-only irradiation once daily for 5 days) | Crossing of the blood-brain barrier (comparator, as stated in legend of FIG. 1) [4]
COc1cc2c(Nc3ccc(Cl)c(Cl)c3F)ncnc2cc1OCC1C[C@@H]2CN(C)C[C@@H]2C1 (stereo partly drawn) [Formula 1, N-(3,4-dichloro-2-fluorophenyl)-7-({[(3aR,6aS)-2-methyloctahydrocyclopenta[c]pyrrol-5-yl]methyl}oxy)-6-(methyloxy)quinazolin-4-amine] | substantially higher | at least 24 hours | crossed the blood brain barrier and attained high concentrations in CNS and brain tissue | comparable to that in blood | good penetration of the blood brain barrier | reduced the growth of glioma tumors in the brain | increased the anti-tumor effects of irradiation on tumors in the brain | 
CS(=O)(=O)CCNCc1ccc(-c2ccc3ncnc(Nc4ccc(OCc5cccc(F)c5)c(Cl)c4)c3c2)o1 [lapatinib] |  |  |  |  |  |  |  | does not cross the blood-brain barrier
